One assay relates to NADPH oxidase (NOX). The assay is described as follows: NOX activity determination, U87 cells. Type of assay: cell-based, human. The following applies: 20 and 50 μM. Here is the method: The effects of candidate drug on NOX activities were measured using cytochrome c reductase (NADPH) Assay Kit (Sigma-Aldrich, St. Louis, MO, USA). Brieﬂy, after the compound treatment (20, 50 μM), the cells were collected and homogenized in an isotonic buffer ([…]), and centrifuged at 1,000 g to obtain the post-nuclear supernatants. Then 50μl samples were added to 950μl working solution (at 25°C) in a 1ml cuvette and mixed by inversion. Then 20μl cytochrome c oxidase inhibitor solution was added. After reaction with 100 μl NADPH solution, the cytochrome c absorbance was monitored at 550 nm by a spectrophotometer.

A further assay relates to U87 cells. Put plainly: Apoptosis by Annexin V-FITC/PI staining, U87 cells. Type of assay: cell-based, human. The note with it: 48 h, mean ± SD. Here is the method:
The effects of test compound on apoptosis were detected by Annexin V-FITC/PI staining. Briefly, after treatment with indicated concentrations of test compounds (20, 50 μM) for 48 h, the cells were collected and resuspended in 500-μl detection buffer. Then 5μl PI and 5μl Annexin V-FITC were added to the detection buffer. Then, cells were incubated for 15 min in the dark and analyzed using Flow cytometer (Becton Dickinson) and WinMDI 2.8 software (Scripps Institute, La Jolla, CA, USA).

Another assay relates to rat C6 glioma cells. Put plainly: Anti-glioma MTT assay, C6 cells. Type of assay: cell-based. The following applies: for pIC50: Rattus norvegicus, C6 cells. Here is the method:
The anti-glioma effects of these compounds were evaluated by MTT assay in rat C6 glioma cells, human glioma U87 and U251 cells, and BMECs cells. Brieﬂy, cells were seeded at the density of 4,000 cells/well in 96-well plates overnight. For the first screening, the cells were incubated with 10, 20, 100 μM compounds for 48 h. Then cell viabilities were detected by MTT assay as described above. For the second screening, the cells were incubated with 6.25-, 12.5-, 25-, 50-, and 100μM compounds for 48 and 96 h, and then detected by MTT assay. The OD of each well was measured at 490 nm on an ELISA microplate reader. The inhibitory rates and IC50 values were calculated.
Background: Formazan colour is commonly taken as a measure of viable cells.

The pIC50 is the IC50 on a negative log10 scale, so that one unit is a factor of ten.

SMILES strings stand for the structures. pIC50: −log10 of the molar value.

For the compound `COc1cc(C(=O)CSCc2ccccc2Cl)ccc1O` [Compound D31, 2-((2-Chlorobenzyl)thio)-1-(4-Hydroxy-3-Methoxyphenyl)Ethan-1-One], the “Effect on NOX activities vs control” value in the assay on NADPH oxidase (NOX) is reported as “no obvious effects”. Also, the Apoptotic cell rate with U87 cells (20 μM) is reported as 16.7 ± 3.1%; with U87 cells (50 μM), 29.7 ± 4.7%. In the assay on rat C6 glioma cells (10, 20, 100 μM, 48 h, compared with D1, P < 0.05), the “Anti-proliferation effect on C6 cells (first screening)” value is given as “significant anti-proliferation effects”. Besides, the pIC50 in the assay with rat C6 glioma cells (48 h) was 4.45; in the assay with rat C6 glioma cells (96 h), 4.59.

The values are drawn from publication PMC6733959, “Synthesis and Evaluations of Novel Apocynin Derivatives as Anti-Glioma Agents” (Frontiers in Pharmacology, 2019).
